Reference: patent publication US20250295799A1, “ANTIBODY-DRUG CONJUGATES TARGETING GLYPICAN-3 AND METHODS OF USE” (Zymeworks BC Inc., priority 2022, published 2025)

Experiments:
Calu-3 (lung cancer) = assay: In vitro cytotoxicity of camptothecin analogues (CellTiter-Glo); type: cell-based; settings: Homo sapiens, Calu-3, 96 h, read-out: pIC50 Calu-3 (converted)
Procedure: (§1) In vitro potency was assessed on multiple cancer cell lines: SK-BR-3 (breast cancer), SKOV-3 (ovarian cancer), Calu-3 (lung cancer), ZR-75-1 (breast cancer) and MDA-MB-468 (breast cancer). Serial dilutions of camptothecin analogues were prepared in RPMI 1640+10% FBS, and 20 μL of each dilution was added to 384-well plates. Cells cultured in log-phase growth were detached by brief incubation in 0.05% Trypsin and resuspended in respective culturing media at 20,000 cells/mL (with the exception of ZR-75 cells, which were resuspended at 10,000 cells/mL). 50 μL of cell suspension was then added to the plates containing test articles. Cells were incubated with test articles for 4 d at 37° C. (with the exception of ZR-75 cells, which were incubated for 5 d). Growth inhibition was assessed by CellTiter-Glo® (Promega Corporation, Madison, WI) and luminescence was measured on a plate reader. IC50 values were determined by GraphPad Prism (GraphPad Software, San Diego CA).

[1] = test system: MDA-MB-468 (breast cancer); assay: as above; type: cell-based; settings: Homo sapiens, MDA-MB-468, 96 h, read-out: pIC50 MDA-MB-468 (converted)
Procedure: as §1

SK-BR-3 (breast cancer) = assay: as above; type: cell-based; settings: Homo sapiens, SK-BR-3, 96 h, read-out: pIC50 SKBR-3 (converted)
Procedure: as §1

SKOV-3 (ovarian cancer) = assay: as above; type: cell-based; settings: Homo sapiens, SK-OV-3, 96 h, read-out: pIC50 SKOV-3 (converted)
Procedure: as §1

ZR-75-1 (breast cancer) = assay: as above; type: cell-based; settings: Homo sapiens, ZR-75-1, 120 h, read-out: pIC50 ZR-75 (converted)
Procedure: as §1

hepatocellular carcinoma = settings: adults with HCC; cited from earlier work

Molecule | IC50 (Calu-3 (lung cancer)) | IC50 [1] | IC50 (SK-BR-3 (breast cancer)) | IC50 (SKOV-3 (ovarian cancer)) | IC50 (ZR-75-1 (breast cancer)) | efficacy in clinical trials, in words (hepatocellular carcinoma) | safety in clinical trials, in words (hepatocellular carcinoma)
CC[C@@]1(O)C(=O)OCc2c1cc1n(c2=O)Cc2c-1nc1cc(F)c(N)cc1c2CN=[N+]=[N-] [Compound 152, (S)-9-amino-11-(azidomethyl)-4-ethyl-8-fluoro-4-hydroxy-1,12-dihydro-14H-pyrano[3′,4′:6,7]indolizino[1,2-b]quinoline-3,14(4H)-dione] | 1.48 nM | 5.01 nM | 3.24 nM | 2.88 nM | – | – | –
CC[C@@]1(O)C(=O)OCc2c1cc1n(c2=O)Cc2c-1nc1cc(F)c(C)cc1c2CNS(=O)(=O)c1ccccc1 [Compound 125, (S)-N-((4-ethyl-8-fluoro-4-hydroxy-9-methyl-3,14-dioxo-3,4,12,14-tetrahydro-1H-pyrano[3′,4′:6,7]indolizino[1,2-b]quinolin-11-yl)methyl)benzenesulfonamide] | 2.82 nM | 3.8 nM | 1.32 nM | 7.08 nM | 1.32 nM | – | –
CC[C@@]1(O)C(=O)OCc2c1cc1n(c2=O)Cc2c-1nc1cc(F)c(C)cc1c2CNS(C)(=O)=O [Compound 122, (S)-N-((4-ethyl-8-fluoro-4-hydroxy-9-methyl-3,14-dioxo-3,4,12,14-tetrahydro-1H-pyrano[3′,4′:6,7]indolizino[1,2-b]quinolin-11-yl)methyl)methanesulfonamide] | 3.72 nM | 1.1 nM | 1.12 nM | 9.12 nM | 1.29 nM | – | –
CC[C@@]1(O)C(=O)OCc2c1cc1n(c2=O)Cc2c-1nc1cc(F)c(C)cc1c2CN1C2CCC1(CO)CC2 [Compound 121] | 0.145 nM | 0.269 nM | 0.148 nM | 0.195 nM | – | – | –
CC[C@@]1(O)C(=O)OCc2c1cc1n(c2=O)Cc2c-1nc1cc(F)c(OC)cc1c2CNC(=O)NCc1ccc(N)cc1 [Compound 135, (S)-1-(4-aminobenzyl)-3-((4-ethyl-8-fluoro-4-hydroxy-9-methoxy-3,14-dioxo-3,4,12,14-tetrahydro-1H-pyrano[3′,4′:6,7]indolizino[1,2-b]quinolin-11-yl)methyl)urea] | – | 10.7 nM | 12.3 nM | – | 13.2 nM | – | –
CC[C@@]1(O)C(=O)OCc2c1cc1n(c2=O)Cc2c-1nc1cc(F)c(C)cc1c2CNS(N)(=O)=O [Compound 131, (S)-((4-ethyl-8-fluoro-4-hydroxy-9-methyl-3,14-dioxo-3,4,12,14-tetrahydro-1H-pyrano[3′,4′:6,7]indolizino[1,2-b]quinolin-11-yl)methyl)sulfamide] | 9.12 nM | 9.12 nM | 1.05 nM | – | 0.955 nM | – | –
CC[C@@]1(O)C(=O)OCc2c1cc1n(c2=O)Cc2c-1nc1cc(F)c(C)cc1c2CN1CCO[C@@H](CO)C1 [Compound 113, (S)-4-ethyl-8-fluoro-4-hydroxy-11-(((R)-2-(hydroxymethyl)morpholino)methyl)-9-methyl-1,12-dihydro-14H-pyrano[3′,4′:6,7]indolizino[1,2-b]quinoline-3,14(4H)-dione] | 3.02 nM | 3.39 nM | 1.95 nM | 4.27 nM | 2.19 nM | – | –
CC[C@@]1(O)C(=O)OCc2c1cc1n(c2=O)Cc2c-1nc1cc(F)c(OC)cc1c2CNS(=O)(=O)c1ccc(N)cc1 [Compound 128, (S)-4-amino-N-((4-ethyl-8-fluoro-4-hydroxy-9-methoxy-3,14-dioxo-3,4,12,14-tetrahydro-1H-pyrano[3′,4′:6,7]indolizino[1,2-b]quinolin-11-yl)methyl)benzenesulfonamide] | – | 8.32 nM | 5.25 nM | 18.2 nM | 4.27 nM | – | –
codrituzumab: "Codrituzumab, also known as GC33 or RG-7686"; antibody targeting GPC3 tested clinically "as a bivalent IgG"; "reference antibody codrituzumab" | – | – | – | – | – | limited efficacy | good safety profile
CC[C@@]1(O)C(=O)OCc2c1cc1n(c2=O)Cc2c-1nc1cc(F)c(C)cc1c2CN1CCSCC1CO (stereo partly drawn) [Compound 114, (4S)-4-ethyl-8-fluoro-4-hydroxy-11-((3-(hydroxymethyl)thiomorpholino)methyl)-9-methyl-1,12-dihydro-14H-pyrano[3′,4′:6,7]indolizino[1,2-b]quinoline-3,14(4H)-dione] | 0.0933 nM | 0.417 nM | 0.107 nM | 0.178 nM | – | – | –
CC[C@@]1(O)C(=O)OCc2c1cc1n(c2=O)Cc2c-1nc1cc(F)c(C)cc1c2CNS(=O)(=O)c1ccc(N)cc1 [Compound 127, (S)-4-amino-N-((4-ethyl-8-fluoro-4-hydroxy-9-methyl-3,14-dioxo-3,4,12,14-tetrahydro-1H-pyrano[3′,4′:6,7]indolizino[1,2-b]quinolin-11-yl)methyl)benzenesulfonamide] | 9.33 nM | 3.8 nM | 3.31 nM | 14.5 nM | 5.25 nM | – | –
CC[C@@]1(O)C(=O)OCc2c1cc1n(c2=O)Cc2c-1nc1cc(F)c(C)cc1c2CN1CCN(c2ccc(N)cc2)CC1 [Compound 108, (S)-11-((4-(4-aminophenyl)piperazin-1-yl)methyl)-4-ethyl-8-fluoro-4-hydroxy-9-methyl-1,12-dihydro-14H-pyrano[3′,4′:6,7]indolizino[1,2-b]quinoline-3,14(4H)-dione] | 40.7 nM | 47.9 nM | 29.5 nM | 55 nM | 18.6 nM | – | –
